# Measured values reported in patent publication EP1203585A1, “ANTI-ISCHEMIC AGENT” (Zakrytoe Aktsionernoe Obschestvo " Asgl-Issledovatelskie …, priority 1999, dated 2001).
# Columns and labels:
# [1] = system: rats with experimental myocardial infarction; experiment: experimental myocardial infarction after occlusion of the descending branch of the left coronary artery (LAD), morphometry of ischemia and injury zones; type: in vivo; settings: for Area of the injury zone: ischemia zone plus necrosis zone; for Area of the injury zone / Area of the necrosis zone / Ratio: necrosis zone /myocard / Ratio: necrosis/ ischemia / Area of the myocardial zone / Area of the ischemia zone / Ratio: ischemia zone/ myocard: third day, PhP 50 mg/kg intraperitoneally 30 minutes before LAD occlusion; for Area of the injury zone / Area of the necrosis zone / Ratio: necrosis zone /myocard / Ratio: necrosis/ ischemia / Area of the ischemia zone / Ratio: ischemia zone/ myocard: Obzidan 0.5 mg/kg; for Area of the injury zone / Area of the ischemia zone / Ratio: ischemia zone/ myocard: * p<0.05 vs physiological solution; for Area of the myocardial zone: Obzidan 0.5 mg/kg 30 minutes before
# Protocol: The study on 4-phenyl-2-pyrrolidinone-1-acetic acid amide anti-ischemic activity has been carried out in model of experimental myocardial infarction caused by the experimental myocardial infarction after the descending branch of the left coronary artery (LAD) occlusion in rats. 4-phenyl-2-pyrrolidinone-1-acetic acid amide was administered intraperitoneally in dose 50 mg/kg 30 minutes before the LAD-occlusion. Anti-ischemic activity of the substance was assessed on the third day after its administration by estimation of the area of necrosis, the area of ischemia and the total myocardial necrosis zone (area of necrosis plus area of ischemia). Ischemia zone and myocardial injury zones were assessed by morphometry methods. Results obtained in the experimental animals' groups exposed to the substance were compared with results obtained in animals, exposed to Obzidan and physiological solutionin (PhS) in dose 0.5 mg/kg, administered 30 minutes before the LAD occlusion.
# rabbits = experiment: toxicity study, blood and biochemical parameters at 50 and 100 mg/kg; type: in vivo
# dogs = experiment: chronic toxicity; type: in vivo; settings: 28 dogs, perorally in doses 50, 250 and 500 mg/kg
# rats [2] = experiment: chronic toxicity; type: in vivo; settings: 160 rats, perorally in doses 50, 250 and 500 mg/kg
# rats [3] = experiment: hemodynamics parameters estimated by direct method; type: in vivo
# Protocol: In the other study parameters of hemodynamics in rats exposed to PhP have been estimated (minute cardiac supply, cardiac index, cardiac output, heart rate). Hemodynamics parameters have been estimated by direct method on the fourth day after PhP administration in dose 50 mg/kg.
# acute toxicity (LD50) = experiment: acute toxicity (LD50); design: species or system rats; settings: rat, in vivo
# Protocol: Acute toxicity (LD50) has been studied in rats, the substance being administered intraperitoneally and perorally. […] LD50 of the substance administered perorally to rats (males and females) - 2464,8 mg/kg, of the pharmaceutical form - 3185,8 mg/kg.
# rats [4] = experiment: toxicity study, blood and biochemical parameters at 50 and 100 mg/kg; type: in vivo
# [5] = PhP 50 mg/kg intraperitoneally, compared with physiological solution
# [6] = 4th day after PhP administration, dose 50 mg/kg
structure (smiles),measurement,setting,value
"CC(C)NCC(O)COc1cccc2ccccc12 (stereo not drawn) [Obzidan, reference compound]",Area of the injury zone,[1],"203,68 MM^2"
same,Area of the necrosis zone,[1],"28,48 mm^2"
same,Ratio: necrosis zone /myocard,[1],"0,059±"
same,Ratio: necrosis/ ischemia,[1],"0,163±"
same,Area of the myocardial zone,[1],"481,13 mm^2"
same,Area of the ischemia zone,[1],"175,21 mm^2"
same,Ratio: ischemia zone/ myocard,[1],"0,365±"
"NC(=O)CN1CC(c2ccccc2)CC1=O (stereo not drawn) [PhP, 4-phenyl-2-pyrrolidinone-1-acetic acid amide]","parameters of the peripheral blood, composition of electrolytes and other biochemical parameters",rabbits,does not influence
same,"changes of peripheral blood and heart, kidney and liver functions",dogs,absence of significant changes
same,"changes of peripheral blood and heart, kidney and liver functions",rats [2],absence of significant changes
same,Anti-ischemic effect,[1]; PhP 50 mg/kg compared with Obzidan 0.5 mg/kg,exceeded the one of Obzidan
same,area of ischemia zone (result in words),[1]; [5],statistically significantly reduced
same,area of the total injury zone (ischemia zone plus necrosis zone) (result in words),[1]; [5],statistically significantly reduced
same,area of myocardial necrosis (result in words),"[1]; PhP 50 mg/kg intraperitoneally, not statistically significant",nearly twice reduced
same,Area of the injury zone,[1],"182,53 MM^2"
same,Area of the necrosis zone,[1],"19,21 mm^2"
same,Ratio: necrosis zone /myocard,[1],"0,039±"
same,Ratio: necrosis/ ischemia,[1],"0,113±"
same,Area of the myocardial zone,[1],"492,55 mm^2"
same,Area of the ischemia zone,[1],"163,33 mm^2"
same,Ratio: ischemia zone/ myocard,[1],"0,332±"
same,Cardiac index,rats [3]; [6],133.8 ±9.8 % in comparison with source data before PhP administration
same,Cardiac output,rats [3]; [6],161.8±12.7 % in comparison with source data before PhP administration
same,Heart rate,rats [3]; [6],115.4±3.1 % in comparison with source data before PhP administration
same,Minute cardiac supply,rats [3]; [6],110.8±3.2 % in comparison with source data before PhP administration
same,inotrop effect,rats [3]; PhP 50 mg/kg,not followed by any negative inotrop effect
same,LD50,"acute toxicity (LD50); ip, rats, females, administered intraperitoneally",522 mg/kg
same,LD50,"acute toxicity (LD50); ip, rats, males, administered intraperitoneally",538 mg/kg
same,LD50,"acute toxicity (LD50); po, rats (males and females), administered perorally",2460 mg/kg
same,"parameters of the peripheral blood, composition of electrolytes and other biochemical parameters",rats [4],does not influence
